Experiments:
H3R = molecular target: T1, H3R (Rattus norvegicus, UniProt Q9QYN8); assay: PET imaging of rat brains; format: in vivo; settings: for cerebellar SUV at 15 min after radioligand injection: mean ± S.D.
T1 construct: from tissue; host or cells: brain of living Sprague-Dawley rats
Protocol: Six-week-old male Sprague-Dawley rats were purchased from Japan SLC (Shizuoka, Japan). PET scans were performed using a microPET Focus 220 small-animal scanner (Siemens Medical Solutions USA, Knoxville, TN). The rats were anesthetized with 1.5–2 % isoflurane during the imaging session, while their heart rate and blood oxygen saturation were monitored by pulse oximeter (CANL-425SVA; Med Associates, St. Albans, VT). Body temperature was kept at 37 °C with a heating pad (BWT-100; Bio Research Center, Aichi, Japan). Following the transmission scans for attenuation correction using a ^68Ge-^68Ga point source, emission scans were performed for 90 min in 3D list-mode with an energy window of 350–750 keV, immediately after the intravenous injection of each radioligand. Mean ± S.D. of the injected radioactivity of [^11C]TASP0410457, [^11C]TASP0434988, and [^11C]TASP0390136 was 119 ± 26 MBq, 132 ± 34 MBq, and 124 ± 17 MBq, respectively (n = 3–5). Mean ± S.D. of the mass doses of [^11C]TASP0410457, [^11C]TASP0434988, and [^11C]TASP0390136 was 2.4 ± 1.2 μg/kg, 1.9 ± 0.4 μg/kg, and 4.2 ± 1.6 μg/kg, respectively (n = 3–5).
To assess the specificity of radioligand binding, thioperamide was injected intravenously at a dose of 10 mg/kg at 30 s before the injection of each radioligand.
All list-mode data were sorted into 3D sinograms, which were then Fourier rebinned into 2D sinograms (frames: 1 min × 4, 2 min × 8 and 5 min × 14). Images were reconstructed using 2D-filtered back-projection with a 0.5-mm Hanning filter.
PET image and magnetic resonance imaging (MRI) template were co-registered using PMOD software (PMOD version 3.206; Zurich, Switzerland) according to the following procedure as in our previous works: Outline of the whole brain and positions of eyes in PET images at an early phase of the scan were initially matched to those in MRI images, and then further translations and rotations of PET images were manually performed for fine alignments. Finally, parameters for the co-registration were applied to the entire dynamic PET data. Regions of interest (ROIs) were placed on the striatum, hippocampus, and cerebellum using PMOD software with reference to the MRI template as described elsewhere. The tissue time-activity curves (TACs) for these ROIs were generated by calculating the SUV for each time frame as follows: SUV=radioactivityBq/g×bodyweightg/injectedradiotracerdoseBq
The binding potentials relative to the non-displaceable uptake (BPND) in the striatum and hippocampus were estimated using the simplified reference tissue model (SRTM) with PMOD software using the cerebellum as a reference region, as the rat cerebellum is devoid of H3R [26].

rat H3R = molecular target: T2, rat H3R (Rattus norvegicus, UniProt Q9QYN8); assay: In vitro binding to H3Rs, rat cerebral cortex membranes, [^3H]N-α-methylhistamine; settings: 1 nM [^3H]N-α-methylhistamine, geometric mean, n = 3, read-out: Affinity for H3Rs Rat, IC50
T2 construct: Rat cerebral cortex and monkey frontal cortex were dissected; from tissue; host or cells: rat cerebral cortex membranes
T2 sequence (Q9QYN8 whole entry): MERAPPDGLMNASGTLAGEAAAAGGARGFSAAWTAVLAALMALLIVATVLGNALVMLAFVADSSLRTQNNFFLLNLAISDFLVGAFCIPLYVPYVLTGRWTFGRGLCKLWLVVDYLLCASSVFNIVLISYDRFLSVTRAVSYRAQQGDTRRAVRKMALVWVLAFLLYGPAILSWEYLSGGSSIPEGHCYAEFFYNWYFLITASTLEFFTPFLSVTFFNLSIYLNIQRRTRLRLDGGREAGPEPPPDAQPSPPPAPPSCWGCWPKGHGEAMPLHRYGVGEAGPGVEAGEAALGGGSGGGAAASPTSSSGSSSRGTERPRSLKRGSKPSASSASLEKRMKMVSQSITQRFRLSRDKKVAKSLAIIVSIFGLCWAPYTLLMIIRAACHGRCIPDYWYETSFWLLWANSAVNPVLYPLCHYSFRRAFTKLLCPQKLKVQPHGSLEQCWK
Protocol: Rat cerebral cortex and monkey frontal cortex were dissected, homogenized with 50 mM Tris buffer (pH 7.4) containing 5 mM EDTA and Protease Inhibitor Cocktail Tablets (Roche Diagnostics, Indianapolis, IN) and centrifuged at 48,000×g for 15 min at 4 °C. The pellets were then suspended in binding buffer (50 mM Tris containing 5 mM EDTA, pH 7.4) and stored at −80 °C as membrane preparations.
The membrane preparations were thawed and incubated in the binding buffer containing 0.1 % bovine serum albumin, 1 nM [^3H]N-α-methylhistamine (PerkinElmer, Waltham, MA) with various concentrations of a dihydroquinolinone derivative (i.e., test compound) at 25 °C for 1 h. The reaction was terminated by rapid filtration through 96-well GF/C filter plates (PerkinElmer) presoaked with 0.5 % polyethyleneimine (Wako, Osaka, Japan). After washes with ice-cold binding buffer, the plates were dried and filled with Microscint-o (PerkinElmer). The radioactivity retained on the filters was counted using a TopCount NXT (PerkinElmer). Total and nonspecific radioligand binding was determined by reaction without and with 10 μM thioperamide and clobenpropit, respectively. The specific radioligand binding was then calculated by subtracting the nonspecific binding from the total binding. The IC50 value for inhibition of the radioligand binding by the test compound was determined using a nonlinear fit of the concentration-response curve for each test compound using SAS 9.2 (SAS Institute Inc., Cary, NC). Data were expressed as the geometric means of IC50 values from three independent experiments run in duplicate.

[1] = Ex vivo pharmacokinetic assessment in the rat brain using LC-MS/MS; settings: 10 μg/kg intravenous, n = 3
Protocol: The rats were decapitated at 5, 15, 30, 60, and 120 min after intravenous administration of TASP0390136, TASP0390174, TASP0410426, TASP0410427, TASP0410457, or TASP0434988 at a dose of 10 μg/kg. The cerebellum and forebrain, including the medial prefrontal and cingulate cortices and anterior striatum, were dissected and homogenized with four volumes of distilled water. The homogenates were protein-precipitated with methanol/acetonitrile (1:9) and were centrifuged at 3974×g for 10 min at 4 °C. The resultant supernatants were injected into an HPLC (Shimadzu-20AD, Shimadzu, Kyoto, Japan) and a tandem mass spectrometer (API4000, AB SCIEX, Framingham, MA) using a Shim-pak XR-ODS column (3.0 × 30 mm, Shimadzu) at 50 °C. TASP0410457 was eluted with a mobile phase consisting of 10 mM of ammonium acetate/acetonitrile with a linear gradient at a flow rate of 1.3 mL/min, and ammonium formate instead of ammonium acetate was used for eluting the other five compounds. […] The eluted TASP0390136, TASP0390174, TASP0410426, TASP0410427, TASP0410457, and TASP0434988 were ionized using an electrospray interface and were detected using reaction monitoring of the transitions of m/z 395 to 91, 395 to 98, 413 to 98, 425 to 98, 408 to 138, and 407 to 138, respectively. A dihydroquinolinone compound (6-[(1-cyclobutylpiperidin-4-yl)oxy]-1-(3,5-difluorophenyl)-3,4-dihydroquinolin-2(1H)-one) was used as an internal standard for all assays. The lower qualification limit for TASP0410457 was 0.05 ng/g tissue, and the limit for the other five compounds was 0.15 ng/g tissue. Data were expressed as standardized uptake values (SUVs) calculated as follows: SUV=tissueconcentrationg/g×bodyweightg/injecteddoseg

central H3Rs = assay: Receptor occupancy assay, [^11C]TASP0410457-PET, Lassen's plot; format: in vivo, monkey
Protocol: Occupancy of central H3Rs by ciproxifan, a selective antagonist/inverse agonist, was quantified by [^11C]TASP0410457-PET scans of an anesthetized monkey with arterial blood sampling. […] Receptor occupancy of ciproxifan was determined using Lassen’s plot without any reference regions using the following equation: VT^Baseline−VT^Ciproxifan=OccVT^Baseline−VND where VT^Baseline and VT^Ciproxifan are the regional VT values at baseline and in the ciproxifan challenge, respectively, VND is the non-displaceable distribution volume, and Occ is the occupancy.

[2] = Radiochemical stability in the final formulation; format: physicochemical; settings: at 40 min after the end of radiosynthesis
Protocol: [^11C]TASP0390136, [^11C]TASP0410457, and [^11C]TASP0434988 were synthesized as shown in Fig. 1a–c (detailed procedures are described in Additional file 1: Supplemental methods) using a homemade automated synthesis system. The radiochemical purities and specific activities of the radioligands, which were analyzed as described in Additional file 1: Supplemental Methods, along with their radiochemical yields and average synthesis times, are summarized in Table 1. Analytical HPLC chromatogram of each radioligand is shown in Additional file 2-4: Figures S1-S3. The radiochemical stabilities of [^11C]TASP0410457 and [^11C]TASP0434988 in the final formulation were >99 % at 1 h and 40 min, respectively, after the end of radiosynthesis.

[3] = thioperamide predosing 10 mg/kg
[4] = SRTM, cerebellum as reference region

T1 sequence (Q9QYN8 whole entry): as above

| SMILES | cerebellar SUV at 15 min after radioligand injection (H3R; baseline) | cerebellar SUV at 15 min after radioligand injection (H3R; [3]) | IC50 (rat H3R) | Mean peak concentration in the forebrain expressed as SUV [1] | further results |
| --- | --- | --- | --- | --- | --- |
| COc1cc(F)cc(N2C(=O)CCc3cc(OCCCN4CCC[C@H]4C)ccc32)c1 [TASP0410426, 1-(3-fluoro-5-methoxyphenyl)-6-{3-[(2R)-2-methylpyrrolidin-1-yl]propoxy}-3,4-dihydroquinolin-2(1H)-one] | – | – | < 3 nM | 0.30 SUV | – |
| O=C(c1ccc(OCCCc2cnc[nH]2)cc1)C1CC1 [ciproxifan, reference compound] | – | – | – | – | receptor occupancy (central H3Rs; 3 mg/kg intravenously, 10 min before [^11C]TASP0410457, anesthetized monkey, Lassen's plot): ~ 75%; adverse effects preventing completion of PET imaging (central H3Rs; 10 mg/kg, monkey, anesthetized with isoflurane): profound effects on heart rates and body motions |
| COc1cccc(N2C(=O)CCc3cc(OCCCN4CCC[C@H]4C)ccc32)c1 [TASP0390174, 1-(3-methoxyphenyl)-6-{3-[(2R)-2-methylpyrrolidin-1-yl]propoxy}-3,4-dihydroquinolin-2(1H)-one] | – | – | < 3 nM | 0.28 SUV | – |

More lines, main results first:

| cerebellar SUV at 15 min after radioligand injection (H3R; baseline) | cerebellar SUV at 15 min after radioligand injection (H3R; [3]) | IC50 (rat H3R) | Mean peak concentration in the forebrain expressed as SUV [1] | SMILES | further results |
| --- | --- | --- | --- | --- | --- |
| 0.33 ± 0.01 | 0.30 ± 0.03 | – | – | C[C@@H]1CCCN1CCCOc1ccc2c(c1)CCC(=O)N2c1ccc(O[11CH3])cc1 [[^11C]TASP0390136] | – |
| – | – | < 3 nM | 0.10 SUV | COc1ccc(N2C(=O)CCc3cc(OCCCN4CCC[C@H]4C)ccc32)c(OC)c1 [TASP0410427, 1-(2,4-dimethoxyphenyl)-6-{3-[(2R)-2-methylpyrrolidin-1-yl]propoxy}-3,4-dihydroquinolin-2(1H)-one] | – |
| 0.64 ± 0.04 | 0.59 ± 0.02 | – | – | [11CH3]Oc1ccc(N2C(=O)CCc3cc(OC4CCN(C5CCC5)CC4)ccc32)cc1 [[^11C]TASP0434988] | radiochemical stability in the final formulation [2]: > 99%; striatal and hippocampal peak SUVs lower than those for [^11C]TASP0410457 (H3R): 20–25%; BPND, Hippocampus (H3R; [4]): 0.36 ± 0.11; BPND, Striatum (H3R; [4]): 0.92 ± 0.21; time for specific binding to reach a pseudo-equilibrium state (H3R; target-to-reference ratios, after intravenous injection): ≤ 15 min |
